Measurements as given in patent US10821118B2, “Oral transmucosal drug delivery system” (ABON PHARMACEUTICALS, LLC, priority 2012, dated 2020).
In brackets after ≈: the same amount, converted by molar mass.

Legend:
[1] = Testosterone solubility in aqueous media (SSF) containing various CIAs; type: physicochemical; conditions: Simulated Saliva Fluid (SSF) containing CIA, thermodynamic from solid, Solubility of Testosterone in CIA Containing SSF
Experimental: Then the sample was filtered through a 0.45 μm polyvinylidene fluoride (PVDF) and the filtrate was analyzed by HPLC.

[2] = system: Sex Hormone Binding Globulin (SHBG), albumin; conditions: cited from earlier work
[3] = Solubility of testosterone in molten CIA systems
Experimental: In each solubility study, a molten solvent of single or combination CIA was prepared by heating and melting the CIA system using a water bath. […] The melt suspension was mixed for at least another 30 minutes while maintaining the CIA's molten state.

[4] = Solubility of crystalline drug in water; conditions: 37 °C
[5] = Heat of fusion of testosterone by DSC, molten / heat treated testosterone-agent samples; type: physicochemical; conditions: pure crystalline testosterone, at melting point of about 150° C.
Experimental: The heat of fusion (ΔHf) can be measured via Differential Scanning calorimetry (DSC).
Talc is an inert purified hydrated magnesium silicate with a melting point of 1500° C.

For `C[C@]12CC[C@H]3[C@@H](CCC4=CC(=O)CC[C@@]43C)[C@@H]1CC[C@@H]2O` [Testosterone], the solubility ([1]; aqueous with cosolvent or surfactant or cyclodextrin, SSF with 0.25% vitamin E-TPGS) was 60.8 µg/mL (≈ 211 µM), the solubility ([1]; aqueous with cosolvent or surfactant or cyclodextrin, SSF with 0.5% vitamin E-TPGS) was 90.1 µg/mL (≈ 312 µM) and the solubility ([1]; aqueous with cosolvent or surfactant or cyclodextrin, SSF with 5% lauroyl polyoxyl-32 glycerides) was 358 µg/mL (≈ 1240 µM). The solubility ([1]; aqueous with cosolvent or surfactant or cyclodextrin, SSF with 5% oleic acid (oleic acid itself not soluble in SSF)) was 27 µg/mL (≈ 93.6 µM), the solubility ([1]; aqueous with cosolvent or surfactant or cyclodextrin, SSF with 5% polyethylene glycol) was 32 µg/mL (≈ 111 µM) and the solubility ([1]; aqueous with cosolvent or surfactant or cyclodextrin, SSF with 5% vitamin E-TPGS) was 600 µg/mL (≈ 2080 µM). For the same molecule, the solubility ([1]; aqueous with cosolvent or surfactant or cyclodextrin, SSF with 10% lauroyl polyoxyl-32 glycerides) was 694 µg/mL (≈ 2410 µM), the solubility ([1]; aqueous with cosolvent or surfactant or cyclodextrin, SSF with 10% oleic acid (oleic acid itself not soluble in SSF)) was 29 µg/mL (≈ 101 µM) and the solubility ([1]; aqueous with cosolvent or surfactant or cyclodextrin, SSF with 10% polyethylene glycol) was 45 µg/mL (≈ 156 µM). The solubility ([1]; aqueous with cosolvent or surfactant or cyclodextrin, SSF with 10% vitamin E-TPGS) was 1210 µg/mL (≈ 4200 µM), the solubility ([1]; aqueous with cosolvent or surfactant or cyclodextrin, SSF with 20% lauroyl polyoxyl-32 glycerides) was 1350 µg/mL (≈ 4670 µM) and the solubility ([1]; aqueous with cosolvent or surfactant or cyclodextrin, SSF with 20% oleic acid (oleic acid itself not soluble in SSF)) was 29 µg/mL (≈ 101 µM). It also gave a solubility ([1]; aqueous with cosolvent or surfactant or cyclodextrin, SSF with 20% polyethylene glycol) of 69.4 µg/mL (≈ 241 µM), a solubility ([1]; aqueous with cosolvent or surfactant or cyclodextrin, SSF with 20% vitamin E-TPGS) of 2250 µg/mL (≈ 7800 µM) and a solubility ([1]; aqueous with cosolvent or surfactant or cyclodextrin, saturated CIA solution, 0.34 g/mL of lauroyl polyoxyl-32 glycerides in SSF) of 2370 µg/mL (≈ 8220 µM). It also gave a solubility ([1]; aqueous with cosolvent or surfactant or cyclodextrin, saturated CIA solution, 0.53 g of vitamin E TPGS in SSF) of 4190 µg/mL (≈ 14500 µM), a solubility ([1]; aqueous with cosolvent or surfactant or cyclodextrin, saturated CIA solution, 1.73 g/mL of polyethylene glycol in SSF) of 1600 µg/mL (≈ 5550 µM) and a solubility ([1]; fassgf or other biorelevant, SSF with 0.25% polyethylene glycol) of 28.1 µg/mL (≈ 97.4 µM). For the same molecule, the solubility ([1]; fassgf or other biorelevant, SSF with 0.5% polyethylene glycol) was 27.8 µg/mL (≈ 96.4 µM), the “protein bound in the blood circulation” value ([2]; blood circulation) was 96% and the “'free'” value ([2]; in males) was 2-3%. The “bound to Sex Hormone Binding Globulin (SHBG)” value ([2]; in males) was “about 44%”, the bound to albumin ([2]; in males) was 50% and the “Solubility of Testosterone in CIA, Theoretical” value (“Solubility … Theoretical” for short) ([3]; Table 24: PEG 8000 50% / oleic acid 50%) was 117.1 mg/gm. For the same molecule, the “Solubility of Testosterone in CIA, Actual” value (from here on “Solubility … Actual”) ([3]; Table 24: molten PEG 8000 50% / oleic acid 50%) was 136.2 mg/gm, the “Solubility … Actual” value ([3]; Table 24: molten PEG 8000 50% / vitamin E-TPGS 50%) was 137.9 mg/gm and the “Solubility … Actual” value ([3]; Table 24: molten oleic acid 50% / vitamin E-TPGS 50%) was 123.6 mg/gm. For the same molecule, the “Solubility … Actual” value ([3]; Table 24: molten oleic acid 100%) was 58.3 mg/gm, the “Solubility … Actual” value ([3]; Table 24: molten oleic acid 100%, listed as testosterone) was “about 58.3 mg/gm” and the “Solubility … Actual” value ([3]; Table 24: molten polyethylene glycol 8000 100%) was 175.9 mg/gm. For the same molecule, the “Solubility … Actual” value ([3]; Table 24: molten polyethylene glycol 8000 100%, listed as testosterone) was “about 175.9 mg/gm”, the “Solubility … Actual” value ([3]; Table 24: molten vitamin E-TPGS 100%) was 78.9 mg/gm and the “Solubility … Actual” value ([3]; Table 24: molten vitamin E-TPGS 100%, listed as testosterone) was “about 78.9 mg/gm”. For the same molecule, the “Solubility … Theoretical” value ([3]; Table 25: PEG 8000 50% / lauroyl polyoxyl-32 glycerides 50%) was 130.0 mg/gm, the “Solubility … Theoretical” value ([3]; Table 25: PEG 8000 50% / vitamin E TPGS 50%) was 130.6 mg/gm and the “Solubility … Actual” value ([3]; Table 25: molten PEG 8000 50% / lauroyl polyoxyl-32 glycerides 50%) was 129.9 mg/gm. For the same molecule, the “Solubility … Actual” value ([3]; Table 25: molten PEG 8000 50% / vitamin E TPGS 50%) was 144.2 mg/gm, the “Solubility … Actual” value ([3]; Table 25: molten lauroyl polyoxyl-32 glycerides 100%) was 81.6 mg/gm and the “Solubility … Actual” value ([3]; Table 25: molten polyethylene glycol 8000 100%) was 178.4 mg/gm. The “Solubility … Actual” value ([3]; Table 25: molten vitamin E TPGS 50% / lauroyl polyoxyl-32 glycerides 50%) was 114.6 mg/gm, the “Solubility … Actual” value ([3]; Table 25: molten vitamin E TPGS 100%) was 82.7 mg/gm and the “Solubility … Theoretical” value ([3]; Table 25: vitamin E TPGS 50% / lauroyl polyoxyl-32 glycerides 50%) was 82.2 mg/gm. The “Solubility … Actual” value ([3]; […]) was 136.6 mg/gm, the solubility [4] was ~27 µg/mL (≈ 93.6 µM) and the “heat of fusion (ΔHf)” value [5] was “about 102.4 J/g”.
